system: m-IMCD3 cells; test: Inhibition of PGE2-stimulated in vitro cyst formation in m-IMCD3 cells (3D culture); assay type: cell-based; conditions: Mus musculus, mIMCD3, 144 h; 3 μM; mean cyst area; 100% for (DMSO + PGE2) and 0% for DMSO control; 6 days of culture; read-out: % Cyst area* after incubation with 3 μM test compound
Method: HEK 293 and MDCK cells (Public Health England, Cell Culture Collections) were maintained in Dulbecco's Modified Eagle's Medium (DMEM) supplemented with 10% (v/v) fetal bovine serum (FBS) (Seralab), 2 mM L-glutamine and 100 U/mL penicillin streptomycin cocktail (ThermoFisher); termed complete media. Clonal HEK 293 cell lines were maintained in complete media supplemented with 0.6 mg/ml G418 (Enzo Life Sciences). Mouse inner medullary collecting duct (m-IMCD3) cells [American Type Culture Collection (ATCC)] were maintained in media consisting of DMEM/Hams F-12 50/50 Mix (DMEM F12; Corning) supplemented with penicillin streptomycin cocktail (100 U/mL) and FBS (10% v/v) (DMEM F12-10% FBS).
Experiment 3: Inhibition of In Vitro Cyst Formation in m-IMCD3 Cells Treated with PDE4 Long Form Activators
The mouse Inner Medullary Collecting Duct cell line (m-IMCD3) spontaneously forms cystic spheroids in 3D culture with a Type 1 collagen/Matrigel extracellular matrix. This process can be stimulated with agents which raise intracellular cAMP and is used as an in vitro model for the formation of cystic structures in the kidneys of patients with ADPKD.
Rat Collagen I (Fisher Scientific) is prepared on ice by neutralising with 1M NaOH and diluting with a 2× volume of DMEM/F12+10% FBS. This is mixed 1:1.1 with ice cold Matrigel (Corning) for coating plates (coating mix), and 1:0.93 with Matrigel for cell plating (plating mix).
The assay is conducted in the wells of a 96-well plate culture dish using a total volume of 130 μL of collagen/Matrigel/DMEM F12-10% FBS suspension in growth media for each matrix plug per individual well. Initially, 30 μL of collagen/Matrigel/DMEM F12-10% FBS (coating mix) is added into the well of a 96 well plate and the collagen is set to a gel by incubating at 37° C. for at least 15 minutes. A second layer of 100 μL collagen/Matrigel suspension (plating mix) containing m-IMCD3 cells (2.75×10^6 m-IMCD3 cells per 96-well plate) is layered over the coating mix and the collagen/Matrigel/cell mix again set to a gel by incubating at 37° C. Cell cultures are maintained at 37° C. in an atmosphere of 5% CO2, 95% air.
Between 18 and 24 h after plating, test compound(s) as DMSO stock solutions [0.1% (v/v) final DMSO concentration] and PGE2 (100 nM final concentration) in DMEM F12-10% FBS are added in quadruplicate wells per condition. Media, together with the test compound and PGE2 are replenished after 2 or 3 days. After 6 days of culture z stack images of the wells are captured using the Nikon Eclipse Ti2-E microscope. Nikon General Analysis software is used to measure the following parameters in each well: the mean cyst area, the number of cysts, and the total cyst area.
PDE4 long form activators inhibited in vitro cyst formation in m-IMCD3 cells. Data are shown in Table 4 as mean cyst area (%), compared to 100% for (DMSO+PGE2) and 0% for DMSO control.

Going from O=C(CC1CCCC1)N1CCc2cnc(N3C4CCC3CNC4)nc2C1 [Example 148, 1-(2-(3,8-diazabicyclo[3.2.1]octan-8-yl)-5,8-dihydropyrido[3,4-d]pyrimidin-7 (6H)-yl)-2-cyclopentylethan-1-one] to O=C(CC1CCCC1)N1CCc2cnc(N3C4CCC3CNC4)cc2C1 [Example 179, 1-(7-(3,8-diazabicyclo[3.2.1]octan-8-yl)-3,4-dihydro-2,6-naphthyridin-2 (1H)-yl)-2-cyclopentylethan-1-one], the activity at 3 µM falls from 7% to 1%.

First: O=C(Cc1ccccc1)N1CCc2nc(N3C4CCC3CNC4)ncc2C1 [Example 133, 1-(2-(3,8-diazabicyclo[3.2.1]octan-8-yl)-7,8-dihydropyrido[4,3-d]pyrimidin-6(5H)-yl)-2-phenylethan-1-one]
Second: O=C(c1ccccc1)N1CCc2nc(N3C4CCC3CNC4)ccc2C1 [Example 120, (2-(3,8-diazabicyclo[3.2.1]octan-8-yl)-7,8-dihydro-1,6-naphthyridin-6(5H)-yl)(phenyl)methanone]
The activity at 3 µM of the first is lower: -5% for the first, 1% for the second.

Going from O=C(N[C@H]1CCOc2ccccc21)N1CCc2nc(N3CCNCC3)ccc2C1 [Example 168, (S)—N-(chroman-4-yl)-2-(piperazin-1-yl)-7,8-dihydro-1,6-naphthyridine-6(5H)-carboxamide] to CCN1CC2CCC(C1)N2c1ccc2c(n1)CCN(C(=O)N[C@H]1CCOc3ccccc31)C2 [Example 167, N—((S)-chroman-4-yl)-2-(3-ethyl-3,8-diazabicyclo[3.2.1]octan-8-yl)-7,8-dihydro-1,6-naphthyridine-6(5H)-carboxamide], the activity at 3 µM falls from 4% to -8%.

First: O=C(Cc1ccc(F)cc1)N1CCc2nc(N3CC4CCC(C3)N4)ncc2C1 [Example 141, 1-(2-(3,8-diazabicyclo[3.2.1]octan-3-yl)-7,8-dihydropyrido[4,3-d]pyrimidin-6(5H)-yl)-2-(4-fluorophenyl)ethan-1-one]
Second: O=C(c1ccc(F)cc1)N1CCc2nc(N3C4CCC3CNC4)ccc2C1 [Example 123, (2-(3,8-diazabicyclo[3.2.1]octan-8-yl)-7,8-dihydro-1,6-naphthyridin-6(5H)-yl)(4-fluorophenyl)methanone]
The activity at 3 µM of the first is higher: -2% for the first, -7% for the second.

Going from CC(C)(C)CC(=O)N1CCc2nc(N3CCNCC3)ccc2C1 [Example 149, 3,3-dimethyl-1-(2-(piperazin-1-yl)-7,8-dihydro-1,6-naphthyridin-6(5H)-yl) butan-1-one] to CC(C)OC(=O)N1CCc2nc(N3C4CCC3CNC4)ccc2C1 [Example 126, isopropyl 2-(3,8-diazabicyclo[3.2.1]octan-8-yl)-7,8-dihydro-1,6-naphthyridine-6(5H)-carboxylate], the activity at 3 µM rises from 11% to 14%.

First: O=C(CC1CCCC1)N1CCc2cc(N3C4CCC3CNC4)ncc2C1 [Example 178, 1-(6-(3,8-diazabicyclo[3.2.1]octan-8-yl)-3,4-dihydro-2,7-naphthyridin-2 (1H)-yl)-2-cyclopentylethan-1-one]
Second: O=C([C@H](O)C1CCCC1)N1CCc2nc(N3C4CCC3CNC4)ccc2C1 [Example 124, (2R)-1-(2-(3,8-diazabicyclo[3.2.1]octan-8-yl)-7,8-dihydro-1,6-naphthyridin-6(5H)-yl)-2-cyclopentyl-2-hydroxyethan-1-one]
The activity at 3 µM of the first is higher: 1% for the first, 0% for the second.

First: CCN1CCN(c2ccc3c(n2)CCN(S(=O)(=O)Cc2ccc(F)cc2)C3)CC1 [Example 161, 2-(4-ethylpiperazin-1-yl)-6-((4-fluorobenzyl)sulfonyl)-5,6,7,8-tetrahydro-1,6-naphthyridine]
Second: CCN1CCN(c2ccc3c(n2)CCN(S(=O)(=O)Cc2ccccc2)C3)CC1 [Example 165, 6-(benzylsulfonyl)-2-(4-ethylpiperazin-1-yl)-5,6,7,8-tetrahydro-1,6-naphthyridine]
The activity at 3 µM of the first is higher: 0% for the first, -1% for the second.

First: CCCN1CC2CCC(C1)N2c1ccc2c(n1)CCN(C(=O)COc1ccc(F)cc1)C2 [Example 172, 2-(4-fluorophenoxy)-1-(2-(3-propyl-3,8-diazabicyclo[3.2.1]octan-8-yl)-7,8-dihydro-1,6-naphthyridin-6(5H)-yl)ethan-1-one]
Second: CCN1CC2CCC(C1)N2c1ccc2c(n1)CCN(C(=O)N[C@@H]1CCOc3ccccc31)C2 [Example 170, N—((R)-chroman-4-yl)-2-(3-ethyl-3,8-diazabicyclo[3.2.1]octan-8-yl)-7,8-dihydro-1,6-naphthyridine-6(5H)-carboxamide]
The activity at 3 µM of the first is lower: 6% for the first, 23% for the second.

Cc1cncc(-c2ccc3c(n2)CCN(C(=O)CC2CCCC2)C3)c1 [Example 182, 2-cyclopentyl-1-(2-(5-methylpyridin-3-yl)-7,8-dihydro-1,6-naphthyridin-6(5H)-yl)ethan-1-one] gave an activity at 3 µM of 50%.

same assay, conditions: Mus musculus, mIMCD3, 144 h; 10 μM; mean cyst area; 100% for (DMSO + PGE2) and 0% for DMSO control; 6 days of culture; read-out: % Cyst area* after incubation with 10 μM test compound

Compared with O=C(N1Cc2ccc(N3C4CCC3CNC4)nc2C1)C(F)(F)c1ccccc1 [Example 130, 1-(2-(3,8-diazabicyclo[3.2.1]octan-8-yl)-5,7-dihydro-6H-pyrrolo[3,4-b]pyridin-6-yl)-2,2-difluoro-2-phenylethan-1-one], O=C(COc1ccccc1)N1CCc2nc(N3C4CCC3CNC4)ccc2C1 [Example 41, 1-(2-(3,8-diazabicyclo[3.2.1]octan-8-yl)-7,8-dihydro-1,6-naphthyridin-6(5H)-yl)-2-phenoxyethan-1-one] is higher in activity at 10 µM: -10% for the first, 4% for the second.

Compared with O=C(N1CCCC1)N1CCc2nc(N3C4CCC3CNC4)ccc2C1 [Example 61, (2-(3,8-diazabicyclo[3.2.1]octan-8-yl)-7,8-dihydro-1,6-naphthyridin-6(5H)-yl)(pyrrolidin-1-yl)methanone], O=C(C1CCCC1)N1CCc2nc(N3C4CCC3CNC4)ccc2C1 [Example 47, (2-(3,8-diazabicyclo[3.2.1]octan-8-yl)-7,8-dihydro-1,6-naphthyridin-6(5H)-yl)(cyclopentyl)methanone] is higher in activity at 10 µM: 3% for the first, 5% for the second.

Going from O=C(NC1CCC(F)(F)CC1)N1CCc2nc(N3C4CCC3CNC4)ccc2C1 [Example 59, 2-(3,8-diazabicyclo[3.2.1]octan-8-yl)-N-(4,4-difluorocyclohexyl)-7,8-dihydro-1,6-naphthyridine-6(5H)-carboxamide] to O=C(CC1CCC(F)(F)CC1)N1Cc2ccc(N3C4CCC3CNC4)nc2C1 [Example 87, 1-(2-(3,8-diazabicyclo[3.2.1]octan-8-yl)-5,7-dihydro-6H-pyrrolo[3,4-b]pyridin-6-yl)-2-(4,4-difluorocyclohexyl)ethan-1-one], the activity at 10 µM rises from -4% to 0%.

First: CN1CC2CCC(C1)N2c1ccc2c(n1)CCN(C(=O)CC1CCC(F)(F)CC1)C2 [Example 106, 2-(4,4-difluorocyclohexyl)-1-(2-(3-methyl-3,8-diazabicyclo[3.2.1]octan-8-yl)-7,8-dihydro-1,6-naphthyridin-6(5H)-yl)ethan-1-one]
Second: CN1CC2CCC(C1)N2c1ccc2c(n1)CN(C(=O)CC1CCC(F)(F)CC1)C2 [Example 93, 2-(4,4-difluorocyclohexyl)-1-(2-(3-methyl-3,8-diazabicyclo[3.2.1]octan-8-yl)-5,7-dihydro-6H-pyrrolo[3,4-b]pyridin-6-yl)ethan-1-one]
The activity at 10 µM of the first is higher: 1% for the first, -3% for the second.

First: CC(C)CC(=O)N1CCc2nc(N3C4CCC3CNC4)ccc2C1 [Example 43, 1-(2-(3,8-diazabicyclo[3.2.1]octan-8-yl)-7,8-dihydro-1,6-naphthyridin-6(5H)-yl)-3-methylbutan-1-one]
Second: O=C(CC1CCCC1)N1CCc2nc(N3C4CCC3CNC4)ccc2C1 [Example 39, 1-(2-(3,8-diazabicyclo[3.2.1]octan-8-yl)-7,8-dihydro-1,6-naphthyridin-6(5H)-yl)-2-cyclopentylethan-1-one]
The activity at 10 µM of the first is lower: -4% for the first, 5% for the second.

In the case of CCN(C(=O)N1CCc2nc(N3C4CCC3CNC4)ccc2C1)C1CCCC1 [Example 64, 2-(3,8-diazabicyclo[3.2.1]octan-8-yl)-N-cyclopentyl-N-ethyl-7,8-dihydro-1,6-naphthyridine-6(5H)-carboxamide], the activity at 10 µM is reported as 0%.

Reference: patent publication US20260001876A1, “Compounds and Their Use as PDE4 Activators” (Mironid Limited, priority 2022, published 2026)
